Source: patent US8642585B2, “Indanyloxydihydrobenzofuranylacetic acids” (Boehringer Ingelheim International GmbH, priority 2012, dated 2014)

Target: human GPR40 receptor (Homo sapiens, UniProt O14842)
Assay: Assay II: IP1 accumulation (IPOne HTRF) in 1321N1 cells stably expressing human GPR40
Type: cell-based
Conditions: 1321N1 cells expressing human GPR40, stimulation 1 h at 37° C., 5% CO2, LiCl 50 mM
Outline: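 1321N1 cells stably expressing human GPR40, seeded 24 h earlier, were stimulated with compound for 1 h at 37 °C in LiCl (50 mM) buffer, pH 7.4. IP1 measured by HTRF (665/615 ratio) after lysis and 1 h room temperature; pEC50 via IP1 reference curve and variable-slope sigmoidal fit.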

human GPR40 receptor, sequence (O14842 whole entry): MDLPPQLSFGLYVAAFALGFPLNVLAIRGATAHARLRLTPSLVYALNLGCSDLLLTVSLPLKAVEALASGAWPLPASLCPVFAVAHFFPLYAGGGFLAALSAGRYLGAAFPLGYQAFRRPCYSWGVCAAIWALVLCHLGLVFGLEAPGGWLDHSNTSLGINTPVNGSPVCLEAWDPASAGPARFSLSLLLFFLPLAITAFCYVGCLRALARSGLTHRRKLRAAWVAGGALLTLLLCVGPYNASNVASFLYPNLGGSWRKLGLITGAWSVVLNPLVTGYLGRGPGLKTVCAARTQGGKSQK

Structure (SMILES)	EC50 [nM]
Cc1cncc(-c2cc(C)c(-c3ccc(F)c4c3CC[C@H]4Oc3ccc4c(c3)OC[C@H]4CC(=O)O)c(C)c2)c1 [Example 111, {(S)-6-[(R)-4-(2,6-Dimethyl-4-(5-methyl-pyridin-3-yl)-phenyl)-7-fluoro-indan-1-yloxy]-2,3-dihydro-benzofuran-3-yl}-acetic acid]	4
Cc1cc(-c2cccnc2)cc(C)c1-c1ccc(F)c2c1CC[C@H]2Oc1ccc2c(c1)OC[C@H]2CC(=O)O [Example 112, {(S)-6-[(R)-4-(2,6-Dimethyl-4-pyridin-3-yl-phenyl)-7-fluoro-indan-1-yloxy]-2,3-dihydro-benzofuran-3-yl}-acetic acid]	5
Cc1cnc(-c2cc(C)c(-c3ccc(F)c4c3CC[C@H]4Oc3ccc4c(c3)OC[C@H]4CC(=O)O)c(C)c2)nc1 [Example 113, {(S)-6-[(R)-4-(2,6-Dimethyl-4-(5-methyl-pyrimidin-2-yl)-phenyl)-7-fluoro-indan-1-yloxy]-2,3-dihydro-benzofuran-3-yl}-acetic acid]	1
Cc1cnc(-c2cc(C)c(-c3ccc(F)c4c3CC[C@H]4Oc3ccc4c(c3)OC[C@H]4CC(=O)O)c(C)c2)cn1 [Example 114, {(S)-6-[(R)-4-(2,6-Dimethyl-4-(5-methyl-pyrazin-2-yl)-phenyl)-7-fluoro-indan-1-yloxy]-2,3-dihydro-benzofuran-3-yl}-acetic acid]	2
Cc1cc(-c2cc(C)c(-c3ccc(F)c4c3CC[C@H]4Oc3ccc4c(c3)OC[C@H]4CC(=O)O)c(C)c2)nc(C)n1 [Example 115, {(S)-6-[(R)-4-(2,6-Dimethyl-4-(2,6-dimethyl-pyrimidin-4-yl)-phenyl)-7-fluoro-indan-1-yloxy]-2,3-dihydro-benzofuran-3-yl}-acetic acid]	2
COc1cc(-c2cc(C)c(-c3ccc(F)c4c3CC[C@H]4Oc3ccc4c(c3)OC[C@H]4CC(=O)O)c(C)c2)ccn1 [Example 116, {(S)-6-[(R)-4-(2,6-Dimethyl-4-(2-methoxy-pyridin-4-yl)-phenyl)-7-fluoro-indan-1-yloxy]-2,3-dihydro-benzofuran-3-yl}-acetic acid]	3
Cc1ccc(-c2cc(C)c(-c3ccc(F)c4c3CC[C@H]4Oc3ccc4c(c3)OC[C@H]4CC(=O)O)c(C)c2)cn1 [Example 117, {(S)-6-[(R)-4-(2,6-Dimethyl-4-(6-methyl-pyridin-3-yl)-phenyl)-7-fluoro-indan-1-yloxy]-2,3-dihydro-benzofuran-3-yl}-acetic acid]	2
Cc1cncc(-c2cc(C)c(-c3ccc(F)c4c3CC[C@H]4Oc3ccc4c(c3)OC[C@H]4CC(=O)O)c(C)c2)n1 [Example 118, {(S)-6-[(R)-4-(2,6-Dimethyl-4-(6-methyl-pyrazin-2-yl)-phenyl)-7-fluoro-indan-1-yloxy]-2,3-dihydro-benzofuran-3-yl}-acetic acid]	2
Cc1ccnc(-c2cc(C)c(-c3ccc(F)c4c3CC[C@H]4Oc3ccc4c(c3)OC[C@H]4CC(=O)O)c(C)c2)n1 [Example 119, {(S)-6-[(R)-4-(2,6-Dimethyl-4-(4-methyl-pyrimidin-2-yl)-phenyl)-7-fluoro-indan-1-yloxy]-2,3-dihydro-benzofuran-3-yl}-acetic acid]	1
Cc1ccc(-c2cc(C)c(-c3ccc(F)c4c3CC[C@H]4Oc3ccc4c(c3)OC[C@H]4CC(=O)O)c(C)c2)nn1 [Example 120, {(S)-6-[(R)-4-(2,6-Dimethyl-4-(6-methyl-pyridazin-3-yl)-phenyl)-7-fluoro-indan-1-yloxy]-2,3-dihydro-benzofuran-3-yl}-acetic acid]	2
Cc1cc(-c2cc(C)c(-c3ccc(F)c4c3CC[C@H]4Oc3ccc4c(c3)OC[C@H]4CC(=O)O)c(C)c2)cc(C)n1 [Example 121, {(S)-6-[(R)-4-(2,6-Dimethyl-4-(2,6-dimethyl-pyridin-4-yl)-phenyl)-7-fluoro-indan-1-yloxy]-2,3-dihydro-benzofuran-3-yl}-acetic acid]	2
Cc1cc(-c2cnccn2)cc(C)c1-c1ccc(F)c2c1CC[C@H]2Oc1ccc2c(c1)OC[C@H]2CC(=O)O [Example 122, {(S)-6-[(R)-4-(2,6-Dimethyl-4-pyrazin-2-yl-phenyl)-7-fluoro-indan-1-yloxy]-2,3-dihydro-benzofuran-3-yl}-acetic acid]	2
Cc1cc(-c2cnc(C3CC3)cn2)cc(C)c1-c1ccc(F)c2c1CC[C@H]2Oc1ccc2c(c1)OC[C@H]2CC(=O)O [Example 123, {(S)-6-[(R)-4-(2,6-Dimethyl-4-(5-cyclopropyl-pyrazin-2-yl)-phenyl)-7-fluoro-indan-1-yloxy]-2,3-dihydro-benzofuran-3-yl}-acetic acid]	7
Cc1cccc(C)c1-c1ncccc1-c1ccc(F)c2c1CC[C@H]2Oc1ccc2c(c1)OC[C@H]2CC(=O)O [Example 124, {(S)-6-[(R)-4-(2-(2,6-Dimethyl-phenyl)-pyridin-3-yl)-7-fluoro-indan-1-yloxy]-2,3-dihydro-benzofuran-3-yl}-acetic acid]	339
CCc1ccc(-c2cc(C)c(-c3ccc(F)c4c3CC[C@H]4Oc3ccc4c(c3)OC[C@H]4CC(=O)O)c(C)c2)nn1 [Example 125, {(S)-6-[(R)-4-(2,6-Dimethyl-4-(6-ethyl-pyridazin-3-yl)-phenyl)-7-fluoro-indan-1-yloxy]-2,3-dihydro-benzofuran-3-yl}-acetic acid]	4
COc1ccc(-c2cc(C)c(-c3ccc(F)c4c3CC[C@H]4Oc3ccc4c(c3)OC[C@H]4CC(=O)O)c(C)c2)cn1 [Example 126, {(S)-6-[(R)-4-(2,6-Dimethyl-4-(6-methoxy-pyridin-3-yl)-phenyl)-7-fluoro-indan-1-yloxy]-2,3-dihydro-benzofuran-3-yl}-acetic acid]	6
O=C(O)C[C@@H]1COc2cc(O[C@@H]3CCc4c(-c5cccnc5N5CCCOCC5)ccc(F)c43)ccc21 [Example 127, {(S)-6-[(R)-7-Fluoro-4-(2-[1,4]oxazepan-4-yl-pyridin-3-yl)-indan-1-yloxy]-2,3-dihydro-benzofuran-3-yl}-acetic acid]	48
O=C(O)C[C@@H]1COc2cc(O[C@@H]3CCc4c(-c5cccnc5N5CCOCC5)ccc(F)c43)ccc21 [Example 128, {(S)-6-[(R)-7-Fluoro-4-(2-morpholin-4-yl-pyridin-3-yl)-indan-1-yloxy]-2,3-dihydro-benzofuran-3-yl}-acetic acid]	288
COc1cnnc(-c2cc(C)c(-c3ccc(F)c4c3CC[C@H]4Oc3ccc4c(c3)OC[C@H]4CC(=O)O)c(C)c2)c1 [Example 129, {(S)-6-[(R)-4-(2,6-Dimethyl-4-(5-methoxy-pyridazin-3-yl)-phenyl)-7-fluoro-indan-1-yloxy]-2,3-dihydro-benzofuran-3-yl}-acetic acid]	4
Cc1cc(-c2cc(C)c(-c3ccc(F)c4c3CC[C@H]4Oc3ccc4c(c3)OC[C@H]4CC(=O)O)c(C)c2)cnn1 [Example 130, {(S)-6-[(R)-4-(2,6-Dimethyl-4-(6-methyl-pyridazin-4-yl)-phenyl)-7-fluoro-indan-1-yloxy]-2,3-dihydro-benzofuran-3-yl}-acetic acid]	5
Cc1cc(-c2cn(C)c(C)n2)cc(C)c1-c1ccc(F)c2c1CC[C@H]2Oc1ccc2c(c1)OC[C@H]2CC(=O)O [Example 131, {(S)-6-[(R)-4-(2,6-Dimethyl-4-(1,2-dimethyl-imidazol-4-yl)-phenyl)-7-fluoro-indan-1-yloxy]-2,3-dihydro-benzofuran-3-yl}-acetic acid]	2
Cc1cc(-c2nccs2)cc(C)c1-c1ccc(F)c2c1CC[C@H]2Oc1ccc2c(c1)OC[C@H]2CC(=O)O [Example 132, {(S)-6-[(R)-4-(2,6-Dimethyl-4-thiazol-2-yl-phenyl)-7-fluoro-indan-1-yloxy]-2,3-dihydro-benzofuran-3-yl}-acetic acid]	2
Cc1cc(-c2cn(C)cn2)cc(C)c1-c1ccc(F)c2c1CC[C@H]2Oc1ccc2c(c1)OC[C@H]2CC(=O)O [Example 133, {(S)-6-[(R)-4-(2,6-Dimethyl-4-(1-methyl-imidazol-4-yl)-phenyl)-7-fluoro-indan-1-yloxy]-2,3-dihydro-benzofuran-3-yl}-acetic acid]	2
Cc1nc(-c2cc(C)c(-c3ccc(F)c4c3CC[C@H]4Oc3ccc4c(c3)OC[C@H]4CC(=O)O)c(C)c2)no1 [Example 134, {(S)-6-[(R)-4-(2,6-Dimethyl-4-(5-methyl-[1,2,4]oxadiazol-3-yl)-phenyl)-7-fluoro-indan-1-yloxy]-2,3-dihydro-benzofuran-3-yl}-acetic acid]	3
COc1ccc(-c2cc(C)c(-c3ccc(F)c4c3CC[C@H]4Oc3ccc4c(c3)OC[C@H]4CC(=O)O)c(C)c2)nc1 [Example 135, {(S)-6-[(R)-4-(2,6-Dimethyl-4-(5-methoxy-pyridin-2-yl)-phenyl)-7-fluoro-indan-1-yloxy]-2,3-dihydro-benzofuran-3-yl}-acetic acid]	7
Cc1cc(-c2noc(C(C)(C)O)n2)cc(C)c1-c1ccc(F)c2c1CC[C@H]2Oc1ccc2c(c1)OC[C@H]2CC(=O)O [Example 136, {(S)-6-[(R)-4-(2,6-Dimethyl-4-(5-[2-hydroxy-prop-2-yl]-[1,2,4]oxadiazol-3-yl)-phenyl)-7-fluoro-indan-1-yloxy]-2,3-dihydro-benzofuran-3-yl}-acetic acid]	3
Cc1cc(-c2ccccn2)cc(C)c1-c1ccc(F)c2c1CC[C@H]2Oc1ccc2c(c1)OC[C@H]2CC(=O)O [Example 137, {(S)-6-[(R)-4-(2,6-Dimethyl-4-pyridin-2-yl-phenyl)-7-fluoro-indan-1-yloxy]-2,3-dihydro-benzofuran-3-yl}-acetic acid]	2
Cc1cccnc1-c1cc(C)c(-c2ccc(F)c3c2CC[C@H]3Oc2ccc3c(c2)OC[C@H]3CC(=O)O)c(C)c1 [Example 138, {(S)-6-[(R)-4-(2,6-Dimethyl-4-(3-methyl-pyridin-2-yl)-phenyl)-7-fluoro-indan-1-yloxy]-2,3-dihydro-benzofuran-3-yl}-acetic acid]	9
